Target: T1, human HPK1 (MAP4K1) (Homo sapiens, UniProt Q92918)
T1 construct: Recombinant human HPK1 kinase domain was obtained from ThermoFisher (Cat. #PV6357) and SignalChem (Cat. #M23-11G); purchased ThermoFisher; SignalChem PV6357; M23-11G
T1 sequence (Q92918 17-274 limits assumed): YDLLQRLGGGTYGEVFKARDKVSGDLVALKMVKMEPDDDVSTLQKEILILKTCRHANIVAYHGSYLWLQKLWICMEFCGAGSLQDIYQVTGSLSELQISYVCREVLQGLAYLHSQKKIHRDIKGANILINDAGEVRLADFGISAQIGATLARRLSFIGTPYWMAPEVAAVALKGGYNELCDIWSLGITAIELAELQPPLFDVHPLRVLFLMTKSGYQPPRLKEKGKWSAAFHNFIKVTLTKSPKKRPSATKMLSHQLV
Assay: Biochemical assay for activity against HPK1 (ADP-Glo, MBP substrate)
Details: recombinant human HPK1 kinase domain, 1 nM enzyme, ADP-Glo luminescence
How it was run: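 IC50s come from ADP-Glo luminescence after a 2 h room-temperature reaction phosphorylating MBP in the presence of ATP. Compound was first preincubated 15 min with 1 nM HPK1 kinase domain, human recombinant. Buffer: 50 mM HEPES pH 7.5, 150 mM NaCl, 3 mM TCEP, 10 mM MgCl2, 0.005% Tween-20, 0.01% BSA.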

COc1cc2c(cc1Nc1ncc3cnn(Cc4cc[nH]c(=O)c4)c3n1)CN(C)CC2 [Example 219, 4-[[6-[(6-methoxy-2-methyl-3,4-dihydro-1H-isoquinolin-7-yl)amino]pyrazolo[3,4-d]pyrimidin-1-yl]methyl]-1H-pyridin-2-one]
IC50: < 100 nM

COc1cc2c(cc1Nc1ncc3cnn(C[C@@H]4[C@H]5C[C@H]5CN4C(C)=O)c3n1)CN(C)CC2 [Example 220, 1-[(1S,2S,5R)-2-[[6-[(6-methoxy-2-methyl-3,4-dihydro-1H-isoquinolin-7-yl)amino]pyrazolo[3,4-d]pyrimidin-1-yl]methyl]-3-azabicyclo[3.1.0]hexan-3-yl]ethanone]
IC50: < 100 nM

COc1cc2c(cc1Nc1ncc3cnn(C[C@@H]4C[C@H](O)CN4C(C)=O)c3n1)CN(C)CC2 [Example 221, 1-((2S,4S)-4-hydroxy-2-((6-((6-methoxy-2-methyl-1,2,3,4-tetrahydroisoquinolin-7-yl)amino)-1H-pyrazolo[3,4-d]pyrimidin-1-yl)methyl)pyrrolidin-1-yl)ethan-1-one]
IC50: < 100 nM

COc1cc2c(cc1Nc1ncc3cnn(C[C@@H]4C[C@H](F)CN4C(C)=O)c3n1)CN(CCO)CC2 [Example 222, 1-((2S,4S)-4-fluoro-2-((6-((2-(2-hydroxyethyl)-6-methoxy-1,2,3,4-tetrahydroisoquinolin-7-yl)amino)-1H-pyrazolo[3,4-d]pyrimidin-1-yl)methyl)pyrrolidin-1-yl)ethan-1-one]
IC50: < 100 nM

COc1cc2c(cc1Nc1ncc3cnn(C[C@@H]4[C@@H](C)CCN4C(C)=O)c3n1)CN(CCO)CC2 [Example 223, 1-((2S,3S)-2-((6-((2-(2-hydroxyethyl)-6-methoxy-1,2,3,4-tetrahydroisoquinolin-7-yl)amino)-1H-pyrazolo[3,4-d]pyrimidin-1-yl)methyl)-3-methylpyrrolidin-1-yl)ethan-1-one]
IC50: < 100 nM

COc1cc2c(cc1Nc1ncc3cnn(C[C@@H]4CC[C@H](O)CN4C(C)=O)c3n1)CN(C)CC2 [Example 224, 1-((2S,5S)-5-hydroxy-2-((6-((6-methoxy-2-methyl-1,2,3,4-tetrahydroisoquinolin-7-yl)amino)-1H-pyrazolo[3,4-d]pyrimidin-1-yl)methyl)piperidin-1-yl)ethan-1-one]
IC50: < 100 nM

COc1cc2c(cc1Nc1ncc3cnn(C[C@@H]4CC[C@@H](O)CN4C(C)=O)c3n1)CN(C)CC2 [Example 225, 1-((2S,5R)-5-hydroxy-2-((6-((6-methoxy-2-methyl-1,2,3,4-tetrahydroisoquinolin-7-yl)amino)-1H-pyrazolo[3,4-d]pyrimidin-1-yl)methyl)piperidin-1-yl)ethan-1-one]
IC50: < 100 nM

— patent publication US11918582B2 (RAPT Therapeutics, Inc., priority 2021, dated 2024)
